These results are taken from publication PMC6337627 (Molecules, 2019).

In assay [1] the target is acetylcholinesterase (AChE) (Electrophorus electricus, UniProt O42275). Briefly: biochemical. As to conditions: for IC50: AChE from Electrophorus electricus, substrate acetylthiocholine, 30 min pre-incubation, mean ± SEM of triplicate independent experiments; for Selectivity: AChE versus BuChE (values fit IC50 BuChE / IC50 AChE).
Assay [2] has as its target T1, butyrylcholinesterase (BuChE) (Equus caballus, UniProt P81908).
T1 construct: from Electrophorus electricus and equine serum; from tissue; host or cells: equine serum
The assay can be described thus: biochemical. As to conditions: BuChE from equine serum, substrate butyrylthiocholine, 30 min pre-incubation, mean ± SEM of triplicate independent experiments.

In a further assay the target is AChE (Electrophorus electricus, UniProt O42275). The assay can be described thus: Kinetic study of AChE inhibition (Michaelis-Menten, Lineweaver-Burk). In kind it is biochemical. As to conditions: Lineweaver-Burk plots, variation in Km and Vmax. As to the method: For this purpose, the rate of enzyme activity was measured at eight different concentrations of substrate ATC.
The assays were carried out in a total volume of 200 μL per well containing AChE from Electrophorus electricus (0.20 unit/mL) in PBS, the synthesized compound in DMSO, PBS at IC50, 2× IC50 concentration, and substrate solution. The general procedure was as follows: AChE and the synthesized compounds 7a to IC50 and twice concentrations in PBS were mixed and incubated at rt for 30 min. After incubation, substrate from 3.8 × 10^−3–0.48 mM was added into the mixture. The reaction was recorded for 10 min measuring the absorbance at 405 nm using a Microtiter plate reader (Multiskan EX, Thermo). Data were plotted using GraphPad Prism v4.03 software (GraphPad Software Inc., San Diego, CA, USA) to obtain the Michaelis–Menten constant (Km) and maximal velocity (Vmax) values. Km values were expressed in μM and Vmax as mol/min/mg protein and correspond to the mean ± SD of three independent assays in triplicate.
Figure 1 The Lineweaver–Burk plot of AChE (0.02 U) with an acetylthiocholine substrate in the absence and presence of inhibitor 7a.

Several values for one entry are separate records, joined by “and”; a condition that tells them apart may be missing. Identical values can stand only once. Starred links: 1 amine or outer side, 2 acyl side, 3 side chain; linkers in the order of their positions; H or OH if unused. Non-standard residues stand in square brackets, D forms with d. Residues, ends and D or L forms follow the SMILES beside them. ξ: configuration not given here. Suc = O=C(CCC(=O)[*:2])[*:1]; Nphe = O=C(O)CNCc1ccccc1; ξF = NC(Cc1ccccc1)C(=O)O; Ava = NCCCCC(=O)O; GABA = NCCCC(=O)O; βAla = NCCC(=O)O

Chain of acetylcholinesterase (AChE) (O42275 24-633): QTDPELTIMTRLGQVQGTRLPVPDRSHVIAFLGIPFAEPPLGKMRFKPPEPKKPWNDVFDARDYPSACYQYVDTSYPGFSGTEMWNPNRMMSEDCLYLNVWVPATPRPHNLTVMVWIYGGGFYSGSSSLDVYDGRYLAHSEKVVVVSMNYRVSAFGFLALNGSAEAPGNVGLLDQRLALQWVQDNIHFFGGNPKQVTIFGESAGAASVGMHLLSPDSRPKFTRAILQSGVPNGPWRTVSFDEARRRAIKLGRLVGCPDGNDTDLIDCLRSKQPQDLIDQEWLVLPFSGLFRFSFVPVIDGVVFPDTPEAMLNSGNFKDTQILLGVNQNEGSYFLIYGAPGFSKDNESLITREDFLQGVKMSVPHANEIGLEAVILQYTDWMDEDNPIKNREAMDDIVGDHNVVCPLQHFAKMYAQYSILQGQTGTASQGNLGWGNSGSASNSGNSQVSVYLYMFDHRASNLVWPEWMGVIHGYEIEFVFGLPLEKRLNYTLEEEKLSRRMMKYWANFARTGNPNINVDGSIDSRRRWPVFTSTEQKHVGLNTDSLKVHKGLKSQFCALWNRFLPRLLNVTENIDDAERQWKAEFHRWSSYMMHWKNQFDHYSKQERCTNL
T1 sequence (P81908 whole entry): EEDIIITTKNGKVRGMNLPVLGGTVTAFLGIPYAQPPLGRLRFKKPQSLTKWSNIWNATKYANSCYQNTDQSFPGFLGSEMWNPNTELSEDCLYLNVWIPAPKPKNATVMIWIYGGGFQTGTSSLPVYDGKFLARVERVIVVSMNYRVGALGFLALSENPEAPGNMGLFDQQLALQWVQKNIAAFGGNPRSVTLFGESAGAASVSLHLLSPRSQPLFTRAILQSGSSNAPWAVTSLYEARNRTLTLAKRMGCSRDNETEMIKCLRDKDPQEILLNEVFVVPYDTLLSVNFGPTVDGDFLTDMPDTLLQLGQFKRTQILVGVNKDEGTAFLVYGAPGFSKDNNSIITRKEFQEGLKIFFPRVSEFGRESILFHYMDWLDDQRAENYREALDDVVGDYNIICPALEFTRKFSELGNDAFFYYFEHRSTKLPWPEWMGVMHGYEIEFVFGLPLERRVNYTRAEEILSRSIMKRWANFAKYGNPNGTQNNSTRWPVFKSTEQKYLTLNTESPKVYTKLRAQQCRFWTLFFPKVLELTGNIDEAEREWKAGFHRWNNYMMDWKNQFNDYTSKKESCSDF
Chain of AChE (O42275 24-633): as the sequence (O42275 24-633) above

Consider `O=C(O)CCCN(CC(=O)NC(Cc1ccccc1)C(=O)O)C(=O)c1ccccc1` (stereo not shown) [6d], for which, in assay [1], the IC50 was determined as 10.6 ± 1.5 µM and the Selectivity was 28.36. For the same molecule, the IC50 in assay [2] came out at 302 ± 5.8 µM.
As for `O=C(O)CCC(=O)N(CC(=O)NC(Cc1ccccc1)C(=O)O)Cc1ccccc1` (stereo not shown) [6e, 2,6-Dibenzyl-4,7-dioxo-3,6-diazadecanedioic acid] (Suc-[Nphe]-[ξF]-OH), the IC50 in assay [1] is 305 ± 5.7 µM; in assay [2], 135 µM and 136 µM. This molecule also gave a Selectivity in assay [1] of 0.45.
In the case of `NCCCC(=O)N(CC(=O)NC(Cc1ccccc1)C(=O)O)Cc1ccccc1` (stereo not shown) [7a, 10-Amino-2,6-dibenzyl-4,7-dioxo-3,6-diazadecanoic acid] (H-[GABA]-[Nphe]-[ξF]-OH), the “kinetic mode of AChE inhibition” value on AChE is “mixed-type inhibition”. In assay [1], this molecule gave an IC50 of 3.67 ± 0.8 µM and a Selectivity of 66.44. The molecule also came in with an IC50 in assay [2] of 244 ± 4.6 µM.
Regarding `NCCC(=O)N(CC(=O)NC(Cc1ccccc1)C(=O)O)Cc1ccccc1` (stereo not shown) [7b, 9-Amino-2,6-dibenzyl-4,7-dioxo-3,6-diazanonanoic acid] (H-[βAla]-[Nphe]-[ξF]-OH), the IC50 in assay [1] amounted to 41.3 ± 2.3 µM; in assay [2], 461 ± 6.2 µM. For the same molecule, in assay [1], the Selectivity came to 11.17.
In the same order, the values of `NCCCCC(=O)N(CC(=O)NC(Cc1ccccc1)C(=O)O)Cc1ccccc1` (stereo not shown) [7c, 11-Amino-2,6-dibenzyl-4,7-dioxo-3,6-diazaundecanoic acid] (H-[Ava]-[Nphe]-[ξF]-OH) are 12.6 ± 1.6 µM, 636.7 ± 3.7 µM and 50.69.

As usually defined, the IC50 is the concentration at which inhibition is half-maximal. A low value points to greater potency in that assay.
